These results are taken from US20220241416A1, “METHODS FOR THE IDENTIFICATION OF SARM1 NADASE ACTIVITY INHIBITORS AND USES THEREOF” (Bar Ilan University, priority 2021, published 2022).

The structures appear in SMILES notation. Entries after “also recorded” stand apart in the source; their conditions may differ. Where two headings read alike, the source gives them in different places.

Format in all cases: biochemical
For assay [1], the target named is T1, hSARM1 (Homo sapiens, UniProt Q6SZW1).
T1 construct: hSARM1w.t; (26ERL . . . GPT724) that was not mutated in E642, was also expressed and isolated; 6xHis (N); TEV cleavage site (N); made in house; host or cells: HEK293F suspension cells
T1 sequence (Q6SZW1 with tags, fused parts or gaps): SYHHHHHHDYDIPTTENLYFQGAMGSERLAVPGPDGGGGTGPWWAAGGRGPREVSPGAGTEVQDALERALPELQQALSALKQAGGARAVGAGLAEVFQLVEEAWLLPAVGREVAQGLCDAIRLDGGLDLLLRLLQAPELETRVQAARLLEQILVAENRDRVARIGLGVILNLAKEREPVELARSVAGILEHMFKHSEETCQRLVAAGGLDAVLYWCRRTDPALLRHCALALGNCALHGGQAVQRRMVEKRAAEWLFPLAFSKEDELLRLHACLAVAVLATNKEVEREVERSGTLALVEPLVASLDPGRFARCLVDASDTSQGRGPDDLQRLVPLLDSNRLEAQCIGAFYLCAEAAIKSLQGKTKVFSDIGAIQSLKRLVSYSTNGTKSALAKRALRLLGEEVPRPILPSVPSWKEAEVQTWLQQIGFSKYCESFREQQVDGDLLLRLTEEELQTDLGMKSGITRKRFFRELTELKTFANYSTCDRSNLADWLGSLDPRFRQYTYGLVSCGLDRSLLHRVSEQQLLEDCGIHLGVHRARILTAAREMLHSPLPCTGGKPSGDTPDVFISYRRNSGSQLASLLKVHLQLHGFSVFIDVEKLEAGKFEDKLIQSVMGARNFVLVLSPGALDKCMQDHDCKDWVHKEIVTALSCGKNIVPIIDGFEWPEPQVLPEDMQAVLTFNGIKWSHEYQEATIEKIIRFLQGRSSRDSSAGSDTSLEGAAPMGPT
The assay is described as follows: HPLC analysis of time dependent NAD+ consumption by hSARM1. The settings on record: 2 mM NAD+ versus 50 μM; porcine brain NADase control not inhibited. As for the experimental part:
Purified hSARM1w.t. was first diluted to 800 nM in 25 mM HEPES pH 7.5, 150 mM NaCl, and then mixed in 37° C. with different concentrations of NAD+(in the same buffer) in a 1:1 v/v ratio and incubated for 0, 5 and 30 min. 1:100 (v/v). BSA (NEB Inc. 20 mg/ml) was included, and reactions were stopped by heating at 95° C. for 2 minutes. Where specified, NMN (Sigma-Aldrich-N3501) was added in different concentrations. For control, NAD+ consumption was compared to a commercially available porcine brain NADase 0.025 units/ml (Sigma-Aldrich-N9879).
HPLC measurements were performed using a Merck Hitachi Elite LaChrom HPLC system equipped with an autosampler, UV detector and quaternary pump. HPLC traces were monitored at 260 nm and integrated using EZChrom Elite software. 10 μL of each sample were injected onto a Waters Spherisorb ODS1 C18 RP HPLC Column (5 μm particle size, 4.6 mm×150 mm ID). HPLC solvents are: A: 100% methanol; B: 120 mM sodium phosphate pH 6.0; C double-distilled water (DDW). The column was pre-equilibrated with B:C mixture ratio of 80:20. Chromatography was performed at room temperature with a flow rate of 1.5 ml/min. Each analysis cycle was 12 min long as follows (A:B:C, v/v): fixed 0:80:20 0-4 min; gradient to 20:80:0 4-6 min; fixed 20:80:0 from 6-9 min. gradient to 0:80:20 from 9-10 min; fixed 0:80:20 from 10-12 min. The NAD+ hydrolysis product ADPR was eluted at the isocratic stage of the chromatography while NAD+ elutes in the methanol gradient stage.

Assay [2] has as its target T1, hSARM1. Description: Kinetic parameters of hSARM1, substrate inhibition fit. As for the experimental part:
FIG. 14C. […] The kinetic parameters were determined from plots of reaction velocity of NAD+ consumption versus substrate (NAD+) concentration and then fitted to the Michaelis-Menten equation (Km and Vmax) or substrate inhibition equation (Ki) using non-linear curve fit in GraphPad Prism. Kcat was calculated by dividing the Vmax with protein molar concentration.
For Vmax and Km determination, the NADase activity assay was performed with several different NAD+ substrate concentrations and sampled in constant time points. For each NAD+ concentration, linear increase zone was taken for slope (V0) calculation. All data were than fitted to the Michaelis-Menten equation using non-linear curve fit in GraphPad Prism software. Kcat was calculated by dividing the Vmax with protein molar concentration.

Assay [3] addresses T1, hSARM1. The assay is described as follows: eNAD-based NADase assay. The settings on record: 1:10 eNAD:NAD+; 400 nM enzyme; activity decreases at higher concentrations. The procedure: FIG. 7D: Rate of change in nucleotide fluorescence under steady-state conditions of eNAD hydrolysis by hSARM1. Reactions were initiated by mixing 400 nM enzyme with different concentrations of 1:10 eNAD+: NAD+(mol/mol) mixtures. Three repeats, standard deviation error bars.
Serial dilutions were made with 25 mM HEPES pH 7.5, 150 mM NaCl buffer and the final mix was transferred to 384-well black plate (Corning). Reaction started by the addition of hSARM1 to a final concentration 400 nM. Then, eNAD degradation rate was monitored by fluorescence reading (330-nm excitation and 405-nm emission wavelengths) of the plate using a SynergyHI (BioTek) in 25° C. for 3 hours. For each NAD+ concentration, a control reaction without SARM1 was measured and subtracted from the + hSARM1 reading and the slope of the linear area was calculated. For the final plot, average of slopes from 3 separate assays for each concentration was calculated.

For the compound `NC(=O)c1ccc[n+]([C@@H]2O[C@H](COP(=O)([O-])OP(=O)(O)OC[C@H]3O[C@@H](n4cnc5c(N)ncnc54)[C@H](O)[C@@H]3O)[C@@H](O)[C@H]2O)c1` [NAD+, Nicotinamide adenine dinucleotide], the “substrate inhibition of hSARM1 NAD+ hydrolysis” value on hSARM1 [1] is “clearly inhibited; also recorded: tightly inhibited”. The Ki came to 727 µM on hSARM1 [2] (apparent inhibition by substrate, read-out: Ki for NAD+, hSARM1) and 700 µM at hSARM1 [2] (substrate inhibition equation, read-out: Ki, inhibition by the substrate NAD+, hSARM1). Further, the “NAD+ concentration at the highest rate of hydrolysis” value at hSARM1 [3] was found to be 100 µM.
